Where a SMILES comes first, the peptide text is derived from it. Where no end group is shown, it is not given here. [ ]: non-standard residue; d: D form. The star is where a group is joined. hArg = N=C(N)NCCCC[C@H](N)C(=O)O; Cit = NC(=O)NCCC[C@H](N)C(=O)O; Hexanoyl = CCCCCC(=O)*; Aib = CC(C)(N)C(=O)O; Mpa = O=C(O)CCS
Assays:
[1] = molecular target: T1, human VPAC2 (Homo sapiens, UniProt P41587); experiment: Alpha screen cAMP in vitro potency, human VPAC2 receptor; format: cell-based; conditions: cAMP generation; single result from two analyses performed in a single run; read-out: Human VPAC2 Receptor: Alpha Screen EC50
T1 construct: expressed in transfected cells
T1 sequence (P41587 24-438): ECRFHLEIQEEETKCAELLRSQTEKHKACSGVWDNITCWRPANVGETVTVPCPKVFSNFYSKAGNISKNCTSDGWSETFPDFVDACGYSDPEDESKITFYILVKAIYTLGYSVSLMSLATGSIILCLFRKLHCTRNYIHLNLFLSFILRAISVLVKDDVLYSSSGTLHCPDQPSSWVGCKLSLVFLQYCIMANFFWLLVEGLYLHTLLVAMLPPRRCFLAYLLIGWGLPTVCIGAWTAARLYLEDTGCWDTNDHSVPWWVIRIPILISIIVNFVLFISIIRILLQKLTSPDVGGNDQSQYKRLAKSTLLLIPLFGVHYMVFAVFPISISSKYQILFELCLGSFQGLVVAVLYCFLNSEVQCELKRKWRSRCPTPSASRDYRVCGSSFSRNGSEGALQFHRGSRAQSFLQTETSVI
How it was run: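 This followed a 60 min stimulation of 50,000 enzyme-free-dissociated cells per point with acceptor beads in stimulation buffer.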

[2] = molecular target: T1, human VPAC2; experiment: Filter binding assay, membranes of stable VPAC2 cell line, 125I-labeled VIP tracer (Table 2); conditions: read-out: Human VPAC2 Receptor Binding
How it was run: (§1)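 Scintillation counting of filter-retained radioligand gave the read-out. Compounds competed with the labelled tracer (about 40000 cpm) for 2.5 μg membranes during 1 hour of shaking in HEPES pH 7.4 buffer containing 0.5% BSA.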

[3] = Rat serum stability studies (remaining active peptide by DiscoveRx cAMP on CHO-VPAC2 cells); format: in vitro ADME
Method: Store the aliquot with aprotinin at 4° C. Store the aliquot without aprotinin at 37° C. […] […] Incubate in room temperature for 30 minutes. Remove the supernatant. […] Incubate on the shaker (300 rpm) for 1 hour. Proceed as normal with the DiscoveRx kit. Include cAMP standards in column 12. Determine EC50 values from the cAMP assay data.

[4] = molecular target: T2, human VPAC1 (Homo sapiens, UniProt P32241); experiment: Filter binding assay, membranes of cells transiently transfected with human VPAC1, 125I-labeled VIP tracer (Table 2); design: expressed in transfected cells; conditions: read-out: Human VPAC1 Receptor Binding
T2 sequence (P32241 31-457): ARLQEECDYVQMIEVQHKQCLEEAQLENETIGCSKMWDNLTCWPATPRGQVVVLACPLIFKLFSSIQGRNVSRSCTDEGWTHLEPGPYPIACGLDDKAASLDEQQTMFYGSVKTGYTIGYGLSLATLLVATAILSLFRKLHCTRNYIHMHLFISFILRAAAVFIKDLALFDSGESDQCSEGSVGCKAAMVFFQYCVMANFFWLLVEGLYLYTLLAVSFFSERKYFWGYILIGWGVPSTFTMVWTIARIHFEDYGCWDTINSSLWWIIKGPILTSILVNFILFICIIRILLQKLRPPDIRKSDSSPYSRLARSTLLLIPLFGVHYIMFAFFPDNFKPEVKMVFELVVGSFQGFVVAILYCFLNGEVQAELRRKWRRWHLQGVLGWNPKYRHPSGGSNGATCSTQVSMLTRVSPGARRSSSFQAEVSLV
How it was run: as §1

[5] = molecular target: T3, human PAC1 (Homo sapiens, UniProt P41586); experiment: Filter binding assay, membranes of cells transiently transfected with human PAC1, 125I-labeled PACAP-27 tracer (Table 2); design: expressed in transfected cells; conditions: read-out: Human PAC1 Receptor Binding
T3 sequence (P41586 21-468): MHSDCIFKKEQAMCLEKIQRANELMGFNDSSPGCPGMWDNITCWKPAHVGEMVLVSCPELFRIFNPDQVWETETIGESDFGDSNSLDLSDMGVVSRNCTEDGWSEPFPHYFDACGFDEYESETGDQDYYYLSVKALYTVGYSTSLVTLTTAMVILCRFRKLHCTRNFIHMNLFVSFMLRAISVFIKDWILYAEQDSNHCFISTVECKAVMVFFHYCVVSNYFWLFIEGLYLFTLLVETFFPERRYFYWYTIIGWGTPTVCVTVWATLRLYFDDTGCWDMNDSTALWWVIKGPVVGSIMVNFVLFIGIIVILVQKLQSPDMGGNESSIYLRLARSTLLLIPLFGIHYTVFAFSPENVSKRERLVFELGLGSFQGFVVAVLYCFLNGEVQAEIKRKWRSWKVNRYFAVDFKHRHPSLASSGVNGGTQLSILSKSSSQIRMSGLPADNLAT
How it was run: as §1

Compound	EC50 [1]	IC50 [2]	Rat Serum Stability (estimated purity in % after 18 hours) [3]	IC50 [4]	IC50 [5]
CCCCCC(=O)N[C@@H](Cc1c[nH]cn1)C(=O)N[C@@H](CO)C(=O)N[C@@H](CC(=O)O)C(=O)N[C@@H](C)C(=O)N[C@H](C(=O)N[C@@H](Cc1ccccc1)C(=O)N[C@H](C(=O)N[C@@H](CC(=O)O)C(=O)N[C@@H](CC(N)=O)C(=O)N[C@@H](Cc1ccc(O)cc1)C(=O)N[C@H](C(=O)N[C@@H](CCCNC(=N)N)C(=O)N[C@@H](CC(C)C)C(=O)N[C@@H](CCCNC(=N)N)C(=O)N[C@@H](CCCCN)C(=O)N[C@@H](CCC(N)=O)C(=O)N[C@H](C(=O)N[C@@H](C)C(=O)N[C@@H](C)C(=O)N[C@@H](CCCCN)C(=O)N[C@@H](CCCNC(=N)N)C(=O)N[C@@H](Cc1ccc(O)cc1)C(=O)N[C@@H](CC(C)C)C(=O)N[C@@H](CCC(N)=O)C(=O)N[C@@H](CO)C(=O)N[C@H](C(=O)N[C@@H](CCCNC(=N)N)C(=O)N[C@@H](CC(N)=O)C(=O)NCC(=O)NCC(=O)N1CCC[C@H]1C(=O)N[C@@H](CO)C(=O)N[C@@H](CO)C(=O)NCC(=O)N[C@@H](C)C(=O)N1CCC[C@H]1C(=O)N1CCC[C@H]1C(=O)N1CCC[C@H]1C(=O)N[C@@H](CO)C(=O)O)[C@@H](C)CC)C(C)C)[C@@H](C)O)[C@@H](C)O)C(C)C [Agonist P213] (Hexanoyl-HSDAVFTDNYTRLRKQVAAKRYLQSIRNGGPSSGAPPPS-OH; C-terminus assumed)	0.24 nM	0.27 nM	0.04%	32.2 nM	
CCCCCC(=O)N[C@@H](Cc1c[nH]cn1)C(=O)N[C@@H](CO)C(=O)N[C@@H](CC(=O)O)C(=O)N[C@@H](C)C(=O)N[C@H](C(=O)N[C@@H](Cc1ccccc1)C(=O)N[C@H](C(=O)N[C@@H](CC(=O)O)C(=O)N[C@@H](CC(N)=O)C(=O)N[C@@H](Cc1ccc(O)cc1)C(=O)N[C@H](C(=O)N[C@@H](CCCNC(=N)N)C(=O)N[C@@H](CC(C)C)C(=O)N[C@@H](CCCNC(=N)N)C(=O)N[C@@H](CCCCN)C(=O)N[C@@H](CCC(N)=O)C(=O)N[C@H](C(=O)N[C@@H](C)C(=O)N[C@@H](C)C(=O)N[C@@H](CCCNC(=N)N)C(=O)N[C@@H](CCCNC(=N)N)C(=O)N[C@@H](Cc1ccc(O)cc1)C(=O)N[C@@H](CC(C)C)C(=O)N[C@@H](CCC(N)=O)C(=O)N[C@@H](CO)C(=O)N[C@H](C(=O)N[C@@H](CCCNC(=N)N)C(=O)N[C@@H](CC(N)=O)C(=O)NCC(=O)NCC(=O)N1CCC[C@H]1C(=O)N[C@@H](CO)C(=O)N[C@@H](CO)C(=O)NCC(=O)N[C@@H](C)C(=O)N1CCC[C@H]1C(=O)N1CCC[C@H]1C(=O)N1CCC[C@H]1C(=O)N[C@@H](CO)C(=O)O)[C@@H](C)CC)C(C)C)[C@@H](C)O)[C@@H](C)O)C(C)C [Agonist P214] (Hexanoyl-HSDAVFTDNYTRLRKQVAARRYLQSIRNGGPSSGAPPPS-OH; C-terminus assumed)	0.16 nM	0.19 nM	0.07%	14.5 nM	
CCCCCC(=O)N[C@@H](Cc1c[nH]cn1)C(=O)N[C@@H](CO)C(=O)N[C@@H](CC(=O)O)C(=O)N[C@@H](C)C(=O)N[C@H](C(=O)N[C@@H](Cc1ccccc1)C(=O)N[C@H](C(=O)N[C@@H](CC(=O)O)C(=O)N[C@@H](CC(N)=O)C(=O)N[C@@H](Cc1ccc(O)cc1)C(=O)N[C@H](C(=O)N[C@@H](CCCNC(=N)N)C(=O)N[C@@H](CC(C)C)C(=O)NC(C)(C)C(=O)N[C@@H](CCCCN)C(=O)N[C@@H](CCC(N)=O)C(=O)N[C@H](C(=O)N[C@@H](C)C(=O)N[C@@H](C)C(=O)NC(C)(C)C(=O)N[C@@H](CCCCN)C(=O)N[C@@H](Cc1ccc(O)cc1)C(=O)N[C@@H](CC(C)C)C(=O)N[C@@H](CCC(N)=O)C(=O)N[C@@H](CO)C(=O)N[C@H](C(=O)N[C@@H](CCCCN)C(=O)N[C@@H](CCC(N)=O)C(=O)N[C@@H](CCCCN)C(=O)NCC(=O)NCC(=O)N1CCC[C@H]1C(=O)N[C@@H](CO)C(=O)N[C@@H](CO)C(=O)NCC(=O)N[C@@H](C)C(=O)N1CCC[C@H]1C(=O)N1CCC[C@H]1C(=O)N1CCC[C@H]1C(=O)N[C@@H](CO)C(=O)O)[C@@H](C)CC)C(C)C)[C@@H](C)O)[C@@H](C)O)C(C)C [Agonist P293] (Hexanoyl-HSDAVFTDNYTRL[Aib]KQVAA[Aib]KYLQSIKQKGGPSSGAPPPS-OH; C-terminus assumed)		16.7 nM	32.70%	> 3000 nM	> 25000 nM
Hexanoyl-HSDAVFTANYTRLRKQVAAKKYLQSIKNKRYGGPSSGAPPPS [Agonist P158]	0.11 nM	0.21 nM	0.32%	25.7 nM	
Hexanoyl-HSDAVFTDNYTRLLAKLAAQKYLQSIKNKRYGGPSSGAPPPS [Agonist P197]	0.09 nM	0.31 nM	5.68%	447 nM	
Hexanoyl-HSDAVFTDNYTRLRKQVAAKKYLQSIKNKRFGGPSSGAPPPS [Agonist P203]	0.14 nM	0.18 nM	<0.09%		
Hexanoyl-HSDAVFTDNYTRLRKQVAAKKYTQSIKNKRYGGPSSGAPPPS [Agonist P232]	1.94 nM		<5.00%		
Hexanoyl-HSDAVFTDNYTRLRKQVAAKLYLQSIKNKRYGGPSSGAPPPS [Agonist P185]	0.18 nM	0.41 nM	0.27%	358 nM	
Hexanoyl-HSDAVFTDNYTRLRLQVAAKKYLQSIKNKRYGGPSSGAPPPS [Agonist P179]	0.24 nM	0.42 nM	1.66%	390 nM	
Hexanoyl-HSDAVFTDNYTRLR[Aib]QAAA[Aib]KYLQSIKNKRYGGPSSGAPPPS [Agonist P324]	0.23 nM	0.43 nM	13.64%	> 3000 nM	
Hexanoyl-HSDAVFTDNYTRLR[Aib]QVAA[Aib]AYLQSIKNKRYGGPSSGAPPPS [Agonist P341]	0.38 nM	2.39 nM	12.82%	> 3000 nM	
Hexanoyl-HSDAVFTDNYTRL[Cit][Aib]QVAA[Aib]KYLQSIKNKRYGGPSSGAPPPS [Agonist P320]	0.49 nM	1.2 nM	28.59%	> 3000 nM	
Hexanoyl-HSDAVFTDNYTRL[hArg][Aib]QVAA[Aib]KYLQSIKNKRYGGPSSGAPPPS [Agonist P316]	0.3 nM	0.38 nM	15.06%	> 3000 nM	
Hexanoyl-HSDAVFTENYTRLRKQVAAKKYLQSIKNKRYGGPSSGAPPPS [Agonist P159]	0.17 nM	0.17 nM	0.15%	131 nM	
Hexanoyl-HSDA[Aib]FTDNYTRLRKQVAAKKYLQSIKNKRYGGPSSGAPPPS [Agonist P212]	0.12 nM	0.19 nM	0.21%	198 nM	
Hexanoyl-HSD[dA]VFTDNYTRLRKQVAAKKYLQSIKNKRYGGPSSGAPPPS [Agonist P207]	0.86 nM	0.81 nM	<0.29%	282 nM	
[Mpa]HSDAVFTDNYTRLLAKLALQKYLQSIKNKRYGGPSSGAPPPS [Agonist P205]	1.14 nM		35.02%		

— patent publication US20080026996A1, “Selective Vpac2 Receptor Reptide Agonists” (ELI LILLY AND COMPANY, priority 2004, published 2008)
